Tests used:
BCR-ABL = target: T1, BCR-ABL (Homo sapiens, UniProt P00519); assay: BCR-ABL protein level and distribution in K562 cells; type: cell-based
T1 construct: The BCR-ABL expressing CML cell line (K562); endogenous in cells; host or cells: K562; the other entry of the earlier key: BCR (P11274, Breakpoint cluster region protein)
Experimental: Top: The BCR-ABL expressing CML cell line (K562) was incubated with 5 μM Degrasyn for the interval noted before cells were lysed and protein extracts were analyzed for BCR-ABL protein (using anti-Abl) levels by immunoblotting. The blot was stripped and reprobed for actin as a protein loading control.
Bottom: RNA from cells treated as described above was isolated (TRIzol Reagent) and used as a template to generate cDNA. This material was then used to prime a real-time PCR reaction for bcr-abl and ubiquitin (Ub) transcripts. The values are reported in terms of the ratio of bcr-abl to Ub.
K562 cells were treated with Degrasyn (2 h, 5 μM) before cells were lysates were prepared and analyzed for BCR-ABL, c-Abl and BCR protein levels. Actin was probed on the stripped blot to control for protein loading.
K562 cells were treated with nothing (Control), vehicle (DMSO; 0.1%), 5 μM Degrasyn or 5 μM geldanamycin for the interval indicated. Cell lysates were prepared and BCR-ABL, HSP70 and Actin were subjected to immunoblotting.
K562 cells were treated with […] Degrasyn for 1 to 2 h before equal protein cell extracts were immunoblotted for BCR-ABL, c-Abl, BCR, HSP90, HSP70 and actin.
K562 cells were treated with Degrasyn (5 μM) for the interval indicated before cell lysates were prepared (Soluble Fraction; prepared in buffer containing 1% NP-40, 0.5% Na-deoxycholate, 0.1% Na-dodecyl sulfate). […]
Western Blot analysis. Cells were harvested, washed twice in cold 1×PBS and lysed in modified RIPA lysis buffer (150 mM NaCl, 1% NP-40, 0.5% Na-deoxycholate [DOC], 0.1% Na-dodecyl sulfate [SDS], 50 mM Tris-HCl (pH 7.5), 1 mM EDTA, 1 mM NaF, 2 mM Na-vanadate, with protease inhibitors (1 mM PMSF, 1 mM benzamidine, 10 μg/ml aprotinin, 10 μg/ml leupeptin) on ice for 30 min. The lysed cells were centrifuged at 13,000 rpm for 30 min and the supernatant collected. The protein concentration of the cell lysate was determined by the Bradford Protein Assay. Fifty to 60 μg of protein were resolved in a 10% SDS-PAGE, and transferred to a PVDF membrane. […]
Real-Time Quantitative TR-PCR analysis of bcr/abl mRNA. […]

K562 cells = assay: MTT assay of cell growth and survival, K562 cells; type: cell-based, human; settings: FIG. 21; anti-tumor activity
Experimental: All compounds are tested for purity (HPLC, NMR) and the calculated molecular weight is used to make up a 10 mM stock solution of each compound (in 100% dimethylsulfoxide or 50% dimethylsulfoxide:50% polyethylene glycol 300). Compounds are diluted into cell culture media consisting of RPMI 1640 with 10% fetal bovine serum to a final starting concentration of 10 μM. [Highest final DMSO content=0.1%.]. Tumor cells (20,000 for non-adherent cells; 5,000 for adherent cells) are plated into individual wells of a 96-well culture plate in 0.1 ml of culture media. Diluted compounds are added to individual wells containing pre-plated cells (final volume 0.2 ml) and incubated at 37° C. for 24 to 72 h. Wells receiving vehicle alone acted as a control.
MTT (viability) assay. MTT reagent (20 μl of 5 mg/ml stock solution, Sigma) is added to the cells and the plates are incubated at 37° C. for another 2 h. Cells are lysed by adding 100 μl of lysis buffer (20% SDS in 50% N,N-dimethylformamide (Sigma) adjusted to pH 4.7 by 80% acetic acid and 1 M HCl such that the final concentration of acetic acid is 2.5% and HCl is 2.5%) into each well and incubated for 6 h. The OD570 of each sample is determined by using a SPECTRA MAX M2 plate reader (Molecular Devices). The OD in control and treated wells is used as an estimate of the effect of compounds on cell growth and survival.
Cell lines. […]

BCR-ABL (T315I) = target: T2, BCR-ABL (T315I) (Homo sapiens, UniProt P00519, T315I); assay: pBCR-ABL and BCR-ABL immunoblot in BV-173R cells; type: cell-based; parameters: dose or concentration left out as unconfirmed; settings: 1 h
T2 construct: endogenous in cells; host or cells: BV-173R; the other entry of the earlier key: BCR (P11274, Breakpoint cluster region protein)
Experimental: Actin was probed as protein loading control.
Western Blot analysis. […] Western blotting was performed using specific primary antibodies Peroxidase-conjugated affiniPure anti-Mouse Anti-Rabbit secondary antibodies (Jackson Immunoresearch Laboratories, West Grove, Pa.). The proteins were visualized with ECL Plus reagents (Amersham Biosciences).

Structure (SMILES): CCC[C@H](NC(=O)/C(C#N)=C/c1cccc(Br)n1)c1ccccc1 [Degrasyn]
- Cytoplasmic staining of BCR-ABL (microscopy) (BCR-ABL; 5 μM): reduced cytoplasmic staining of BCR-ABL
- BCR-ABL, c-Abl, BCR, HSP90, HSP70 levels (BCR-ABL; 5 µM, 1 to 2 h): down-regulated
- BCR-ABL, c-Abl and BCR protein levels (BCR-ABL; 2 h, 5 μM): reduced BCR-ABL protein levels but had minimal effects on c-Abl and BCR
- IC50 (K562 cells): 2800 nM
- pBCR-ABL and BCR-ABL protein levels, BV-173R (BCR-ABL (T315I)): reduced BCR-ABL protein levels in both w/t and mutant BCR-ABL expressing cells
